For one data set, the system named is tumors. The experiment in a line: SRF given 1-2 hours prior to 3-bromopyruvate: tumor size. Format: in vivo. The conditions noted are these: 3 bromopyruvate by itself. The method, then: To date most patients with cancer that are treated with radiation or cancer drugs show a partial reduction of tumor sizes, but in most cases the cancer remains and life expectances increases for a short period of time. This is the case for tumors. Five patients with various cancers were treated with 3-Bromopyruvate, an alkylating agent and a well-known inhibitor of energy metabolism. Results to date have been mixed. The problem with most cancer drugs is not only their toxicity to noncancerous tissue, but is their inability to completely eradicate the cancer. Cancer drugs cause hypoxia in normal noncancerous cells and they destroy tissue and their ability to heal. In mice studies conducted by others, they investigated the chemo preventive activity of 3-bromopyruvate. For the topical treatment the mice were treated with 10-30 mg/5 ml daily and treated for 8 weeks. […] 3-Bromopyruvate also dissociated hexokinase II from mitochondria, reduced hexokinase activity, and blocked energy metabolism in cancer cells, finally triggered cancer cell death and induced apoptosis through caspase-3, and PARP in human lung cancer cell line. The problem with 3-bromopyruvate was its toxicity to normal cells. The formula needed to protect noncancerous cells from 3-bromopyruvate and to enhance its effect on tumors, was the addition of SRF 1-2 hours prior to the administration of the 10 mg of 3-bromopyruvate. […]

Another data set has as its system virally infected cells. The data set can be described thus: Viral plaque formation in virally infected cells. In kind it is cell-based. From the text:
A commercial cold sore formula was purchased and the enumerated keto acids were placed into it to treat cold sores, both as a combination and singly as well. The commercial formulation by itself was utilized as a control. […] However, when SRF was placed in the cold sore formulation both with and without anti-oxidants and fatty acids, they heal the cold sore at a much faster rate 10-40% when tested on a cold sore sufferer The same experiment was done with virally infected cells and the combination of pyruvate and α-Ketoisovalerate with SRF decreased viral plaque formation by 50%. Viral plaques are a direct measure of viral numbers in infected cells. […] Other antivirals were evaluated with SRF to determine if the addition of SRF could reduce the skin irritation produced by Foscarnet sodium, Ribavirin, imiquimod, vidarabine, ganciclovir sodium, zidovudine, phenol, amantadine hydrochloride, and interferon. alpha.-n3. Even though some of these anti virals are not effective against a cold sore, they were evaluated on human cold sores to determine if SRF could reduce the irritation and enhance healing at the infection site. All formula with SRF healed cold sore two days faster than non-treatments and when this formula was combined with antiviral, like acyclovir or docosonal, the viral lesions healed 1.5 days faster than the commercial antiviral agent alone (Abreva or acyclovir). […]

In another data set the test system is wounds. The experiment in a line: Various drugs administered on wounds with or without sodium pyruvate or SRF: erythema rating and days to total re-epithelization. The conditions noted are these: for Drugs in commercial formula with SRF erythema / Drugs in commercial formula with sodium pyruvate only erythema / Drugs in commercial formula erythema: Rating 1-10, 1 most erythema, 10 no erythema; for Drugs in commercial formula erythema / Drug in commercial formula Days to healing: drug alone; for Drug in commercial formula with SRF. Days to healing / Drug in commercial formula with sodium pyruvate only. Days to healing / Drug in commercial formula Days to healing: days to total re-epithelization. On the procedure:
(§1) All previous studies using pyruvate to treat wounds or be used as an antioxidant used only the sodium salt form of pyruvic acid. The drug products that were tested in previous studies used 1-3% sodium pyruvate and other sodium salts of alpha keto acids by weight 1-3% concentrations in the lotions and triple antibiotic formulations. […]

For the next data set, the system named is HSV-1 or 2. The data set can be described thus: Viral plaques in virally infected cells, HSV. In kind it is cell-based. From the text: Results: The primary end points were the levels of IL-8 and IL-1 after treatment with an immunostimulators, and SRF. […] IL-8 activates neutrophils to increase their numbers at the infected site. […] IL-1 increases inflammation and decreases healing times. […] The same experiment was done with virally infected cells and the SRF in combination with immunostimulators decreased viral plaque formed by HSV-1 or 2 by 70% and HPV-18 decreased by 82%. Viral plaques are a direct measure of viral numbers in infected cells.

In data set [1] the test system is cultured human dermal fibroblasts. The data set can be described thus: Procollagen production in cultured human dermal fibroblasts (ELISA). In kind it is cell-based. (In general: ELISA stands for enzyme-linked immunosorbent assay.)
Data set [2] relates to Doxorubicin treated wounded hairless rats. The data set can be described thus: Rat wound strength healing study, doxorubicin-impaired wounds. In kind it is in vivo. The conditions noted are these: for Days to healing: Doxorubicin treated wounded hairless rats, topical, 2% pyruvate salts, 1% L proline, 1% L-citrulline; for Percentage of wound breaking strength, by day 21: compared to non-wounded normal skin (100%). The method, then: Wound breaking strength is a measurement of wound strength after injury compared to normal noninjuried skin. Fourteen groups of five rats each were studied. The SRF was administered topically daily. All groups were wounded at postoperative day 0, at which time Doxo was given to all Groups. All wounds were harvested at POD 21, and the mean wound breaking strength (WBS) of each group was obtained using an Instron Tensiometer.

The subject of the next data set is HPV 16 or 18. The data set can be described thus: Viral plaque reduction, patients with vaginal HPV treated with SRF cream containing imiquimod. The conditions noted are these: human, in vivo. On the procedure: Percentage of Viral Plaque Reduction in Virally Infected Cells in Humans
A total of 15 patients with vaginal HPV 16 or 18 were treated with the SRF cream that also contained imiquimod. […] SRF reduces viral plaques in virally infected cells by 22-34%. Unexpectedly, the combination of SRF and Imiquimod produced the best results, by reducing the viral plaques over 92%, eliminating the virus from most of the infected cells. This tissue culture data along with data from humans, confirms that this combination worked.

Data set [3] relates to laser wounds on the left arm. The experiment in a line: Pigmentation study on laser wounds. As to conditions: range 1-10, 10 totally normal. Format: in vivo. From the text:
Six laser wounds were made on the left arm. As an example, Mupirocin was placed on the first wound site, Mupirocin plus sodium pyruvate was placed on the second wound site and Mupirocin with SRF was placed on third wound site. The same process was repeated with another drug for sites 4-6. Every two days the bandages coated with the drugs were removed and replaced five times. Pigmentation measurements range from 1-10 with 10 being totally normal. The mupirocin drug formulas averaged a 4.9 for pigmentation. […]. The addition of the SRF averaged 7.45 a […] increase in pigmentation.

Data set [4] deals with UVB-induced wrinkle formation. The experiment in a line: Topical alpha-ketoglutarate on UVB-induced wrinkle formation. Format: in vivo, human. The conditions noted are these: 1% topical, 6 weeks.
The test system of data set [5] is skin laser wounds in patients. The experiment in a line: Salts of pyruvate and SRF on skin laser wounds in patients: healing and irritation. On the procedure:
as §1

In the next data set the test system is cold sores. The data set can be described thus: Cold sore treatment, 15 subjects. As to conditions: human, in vivo.
The subject of another data set is non-cancerous cells. The data set can be described thus: Viable non-cancerous cells after incubation with anticancer drugs in various media. Format: cell-based.
For a further data set, the system named is wounded hairless Rats. The experiment in a line: Nitric oxide production and days to healing in wounded hairless rats. As to conditions: topical. Format: in vivo, rat.
Data set [6] can be described thus: Amount of salts delivered in the pyruvate formulations compared to amounts in human blood. The conditions noted are these: amount delivered in the pyruvate formulation.
The mark [7] stands for this setting: same concentration of pyruvate for each salt, compared with sodium pyruvate formulations or base.

“Also recorded” adds a separate entry of the source. Read-outs that look alike come from different tables or passages of the source.

On to `O=C(O)C(=O)CBr` [3-bromopyruvate], for which the “reduction of tumor sizes” value with tumors was 60%.

`Nc1nc2c(ncn2COCCO)c(=O)[nH]1` [Acyclovir]: the “decrease of viral plaque formation” value with virally infected cells is reported as 60%. Further, in the data set with wounds, the “Drugs in commercial formula with SRF erythema” value came to 7, the “Drugs in commercial formula with sodium pyruvate only erythema” value amounted to 5, the “Drugs in commercial formula erythema” value was determined as 4 and the “Drug in commercial formula with SRF. Days to healing” value came to 10 days. Also, in the data set with wounds, the “Drug in commercial formula with sodium pyruvate only. Days to healing” value is 13 days and the “Drug in commercial formula Days to healing” value is listed as 18 days. Further, the “decreased viral HSV plaques” value in the data set on HSV-1 or 2 was 60%.

As for `O=C(O)[C@@H]1CCCN1C(=O)OCc1ccccc1` [Cbz-Pro, N-benzyloxycarbonyl-L-proline], the “procollagen synthesis by alpha-ketoglutarate” value in data set [1] (prolidase inhibitor added) is recorded as “inhibited procollagen synthesis”.

In the case of `COc1cccc2c1C(=O)c1c(O)c3c(c(O)c1C2=O)C[C@@](O)(C(=O)CO)C[C@@H]3O[C@H]1C[C@H](N)[C@H](O)[C@H](C)O1` [Doxorubicin], the “impaired normal wound strength by” value in data set [2] (Doxo 6 mg/kg i.v., POD 21) stood at 40%.

In the case of `CC(C)Cn1cnc2c(N)nc3ccccc3c21` [Imiquimod], in the data set on HPV 16 or 18, the “reduction of viral plaques in virally infected cells” value is on record as 25-40%.

Regarding `C/C(=C\C(=O)OCCCCCCCCC(=O)O)C[C@@H]1OC[C@H](C[C@@H]2O[C@H]2[C@@H](C)[C@H](C)O)[C@@H](O)[C@H]1O` [Mupirocin], in the data set with wounds, the “Drugs in commercial formula with SRF erythema” value came to 8, the “Drugs in commercial formula with sodium pyruvate only erythema” value worked out at 6, the “Drugs in commercial formula erythema” value turned out to be 4 and the “Drug in commercial formula with SRF. Days to healing” value turned out to be 11 days. Moreover, in the data set on wounds, the “Drug in commercial formula with sodium pyruvate only. Days to healing” value is reported as 15 days and the “Drug in commercial formula Days to healing” value worked out at 20 days. The same molecule registered a Pigmentation measurement in data set [3] of 4.9.

Consider `O=C(O)CCC(=O)C(=O)O` [alpha-ketoglutarate], for which the stimulated procollagen production in data set [1] (10 microM, compared to vehicle (dH(2)O)-treated control cells) was 25.6+/−4.6%. Moreover, the activities of prolidase entry in [1] (fibroblasts) was “increased”. In data set [4], the wrinkle formation result is “decreased wrinkle formation”.

Take `CC(=O)C(=O)O.N` [ammonium pyruvate]: the irritation or toxicity entry in data set [5] (human, in vivo) is “irritating and possibly toxic”. For the same molecule, in [5] (setting [7]), the wound healing results is “slight increases in healing; also recorded: did not produce increases in healing over the base”.

For the molecule `CCCCCCCCCCCCCCCCCCCCCCO` [docosonal], the “cold sore efficacy, lesion healing” value with cold sores is recorded as “better efficacy with the addition of SRF”.

`CC(=O)C(=O)[O-].[Li+]` [lithium pyruvate]: the irritation or toxicity entry in data set [5] (human, in vivo) is “irritating and possibly toxic”. For the same molecule, in [5] (setting [7]), the wound healing results was “slight increases in healing; also recorded: did not produce increases in healing over the base”.

Turning to `O=C1[O][Pt]2([NH][C@@H]3CCCC[C@H]3[NH]2)[O]C1=O` [oxaliplatin], in the data set with non-cancerous cells, the “Percentage of viable cells, Drugs in commercial formula” value is 24%; the “Percentage of viable cells, Drugs in commercial formula sodium pyruvate without SRF” value came to 41%; the “Percentage of viable cells, Drugs in commercial formula with SRF” value stood at 95%. Moreover, the “Percentage of viable cells after incubation with drugs” value (shortened to “Percentage … with drugs”) in the data set with non-cancerous cells (drug) is given as 23%. Also, the “Percentage of viable cells, Drugs in commercial formula with SRF repeat study” value (shortened to “Percentage … with SRF repeat study”) in the data set on non-cancerous cells (repeat study) is 98%.

As for `Oc1ccccc1` [phenol], in the data set with cold sores, the “cold sore efficacy, lesion healing” value is given as “did not work very well”.

As for `CC(=O)C(=O)[O-].[Na+]` [sodium salt of pyruvic acid, sodium pyruvate], the irritation or toxicity result in data set [5] (human, in vivo) is on record as “no irritation”. The wound healing results in data set [5] (setting [7]) is “enhanced healing”.

With Bevacizumab, in the data set with non-cancerous cells, the “Percentage … with drugs” value stood at 21%; the “Percentage of viable cells, Drugs in commercial formula” value came to 27%; the “Percentage of viable cells, Drugs in commercial formula sodium pyruvate without SRF” value is given as 40%; the “Percentage … with SRF repeat study” value amounted to 87%.

In the case of Bleomycin, in the data set on non-cancerous cells, the “Percentage of viable cells, Drugs in commercial formula” value turned out to be 33%; the “Percentage of viable cells, Drugs in commercial formula sodium pyruvate without SRF” value turned out to be 47%; the “Percentage of viable cells, Drugs in commercial formula with SRF” value stood at 98%. Further, in the data set with non-cancerous cells (drug), the “Percentage … with drugs” value turned out to be 31%. Also, the “Percentage … with SRF repeat study” value in the data set with non-cancerous cells (repeat study) turned out to be 98%.

For the molecule Calcium pyruvate, in data set [2], the Days to healing was found to be 14 days and the “Percentage of wound breaking strength, by day 21” value is on record as 42%. In the data set with wounded hairless Rats, the “% of NO levels against normal nonwounded skin” value worked out at 22% and the Days to healing turned out to be 15 days.

Turning to Magnesium pyruvate, in [2], the Days to healing is 14 days and the “Percentage of wound breaking strength, by day 21” value was 44%. In addition, in the data set with wounded hairless Rats, the “% of NO levels against normal nonwounded skin” value was found to be 36% and the Days to healing worked out at 13 days. The wound healing results in [5] (human, in vivo) was “slight increases in healing; also recorded: did not produce increases in healing over the base”.

Turning to aluminum pyruvate, in [5] (setting [7]), the wound healing results is “slight increases in healing; also recorded: did not produce increases in healing over the base”.

Turning to manganese pyruvate, in [5] (setting [7]), the wound healing results was “slight increases in healing; also recorded: did not produce increases in healing over the base”.

Regarding zinc pyruvate, in data set [6], the “delivered salt relative to blood levels” value was 840 × blood levels. Further, the wound healing results in data set [5] (setting [7]) is listed as “slight increases in healing; also recorded: did not produce increases in healing over the base”. Also, the irritation or toxicity result in data set [5] (skin) was “irritating and possibly toxic”.

For the origin of these results see patent US11458114B2, “Methods and compositions for enhancing synthesis secretion and transport of collagen to increase wound strength” (NORTH CELL PHARMACEUTICALS, INC., priority 2020, dated 2022).
